# Source: US20060121449A1, “Method for selection of compounds which inhibit clonal cell growth and use thereof” (priority 2002, published 2006)
# “Also recorded” adds a separate entry of the source.
# Legend:
# [1] = tested on: polyoma virus transformed BHK21/c13 cells, line S100T1; assay: Collocation inhibition test: clonal growth in sparsely and densely seeded areas of a cell density gradient of S100T1 cells in soft agar (Exp 13, 17, 19-26); conditions: for Significance: Exp 17 day 14;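 on Clonal growth, H high density area of cell gradient, High: grades rise with clonal growth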;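 on Clonal growth, H high density area of cell gradient, Low: grades rise with clonal growth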;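 on Clonal growth, H high density area of cell gradient, Medium: grades rise with clonal growth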;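 on Clonal growth, L low density area of cell gradient, High: grades rise with clonal growth and minus or plus-minus means none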;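 on Clonal growth, L low density area of cell gradient, Low: grades rise with clonal growth and minus or plus-minus means none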;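 on all read-outs here: soft agar cultures in 24-well plates with a cell density gradient in the top layer, compounds applied from DMSO stocks, clonal growth scored in sparse versus dense areas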
# Experimental: (§1) The cells should be grown in a top agar layer to avoid growth on the bottom surface. […] Both densely seeded and sparsely seeded areas were photographed.
# (§2) Cells: The polyoma virus transformed offspring of BHK21/c13, S100T1, was grown on 75 cm^2 flasks on Eagles medium with 5% foetal calf serum. […] Foetal calf serum (0.7 ml) was added to each harvest. After low speed centrifugation the supernatant was discarded and the cells were dispersed in 1 ml FBS.
# (§3) The concentration of ultra low gelling temperature agarose (Sigma) of the top agar layer with cells was also 0.8%. […] The addition of cells was performed at the same side of the wells in order to create similar cell density gradients. Finally the top layer agar was consolidated in the refrigerator.
# (§4) After that it was incubated at 37 degrees in 5% CO2 atmosphere.
# (§5) Agar cultures were prepared in Falcon 24 well tissue culture plate. Each well contained two agar layers of 0.3 ml.
# (§6) Agar cultures were prepared in wells of Falcon 24 well tissue culture plate. Each contained two agar layers of 0.3 ml. […] The medium contained Eagles MEM and 10% foetal bovine serum (FBS).
# (§7) The compounds were first solved in DMSO in 20 mM concentration and then diluted in medium. The top layer needed 60-90 minutes in the refrigerator for solidification before incubation in 37° C. with 5% CO2 atmosphere.
# (§8) In this experiment the inhibitor was added to the bottom layer in order to get an easier way for making the cell density gradient. One side of the Falcon 24 well plate was elevated 12 degrees in the refrigerator for 60-90 minutes to solidify the bottom layer in an oblique position When then solidifying the cell containing top soft agar layer in horizontal position, the cell gradient constantly became good across the well. […] Another 90 minutes were spent in the refrigerator to consolidate the soft agar layer with cells in a horizontal position. Both layers contained 0.8% agarose, Eagles MEM and 10% FBS.
# (§9) Tilting the plate 12 degrees when solidifying the bottom layer with the drug and casting the top layer with cells horizontally made a stable cell gradient.
# (§10) The indicated compounds were added to soft agar cultures of the polyoma virus transformed cell line S100T1 of BHK21/c13 cells (Table 1). Agar cultures were prepared in wells of a Falcon 24 well tissue culture plate. The wells contained two agar layers of 0.3 ml. […] The bottom medium was identical, but without cells.
# (§11) The compounds were first solved in DMSO in 20 mM concentration and then diluted in bottom medium. The agar layers needed 60-90 minutes in the refrigerator for consolidation before incubation at 37° C. in 5% CO2 atmosphere.
# [2] = tested on: polyoma virus transformed BHK21/c13 cells, line S100T1;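 further: soft agar cultures in 24-well plates with a cell density gradient in the top layer, compounds applied from DMSO stocks, clonal growth scored in sparse versus dense areas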;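 on Clonal growth, H high density area of cell gradient, High: grades rise with clonal growth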;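 on Clonal growth, H high density area of cell gradient, Low: grades rise with clonal growth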;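 on Clonal growth, H high density area of cell gradient, Medium: grades rise with clonal growth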;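 on Clonal growth, L low density area of cell gradient, High: grades rise with clonal growth and minus or plus-minus means none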;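 on Clonal growth, L low density area of cell gradient, Low: grades rise with clonal growth and minus or plus-minus means none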
# Experimental: as §1, §2, §3, §4, §5, §6, §7, §8, §9, §10, §11
# [3] = preliminary results, Exp 13-18, 21-26, high concentration
# [4] = preliminary results, Exp 13-18, 21-26, low concentration
# [5] = preliminary results, Exp 13-18, 21-26, medium concentration
structure (smiles),measurement,setting,value
"COc1cc([C@@H]2c3cc4c(cc3[C@@H](O[C@@H]3O[C@@H]5CO[C@@H](C)O[C@H]5[C@H](O)[C@H]3O)[C@H]3COC(=O)[C@H]23)OCO4)cc(OC)c1O [Etoposide, reference compound]",Inhibition of cells in crowded areas,[1]; Exp 17,induce the best inhibition of cells in crowded areas
same,Effect on growth in high- and low-density areas,"[1]; Exp 17, 144000 S100T1 cells/well",growth inhibition of both high and low-density areas; also recorded: significant inhibition of growth in crowded areas
same,"Clonal growth, results read on the day 14","[1]; Exp 17, a: close to densely seeded cell areas, High: Colchicine 1, Podophyllotoxin 3, Etoposide 200, 4-OH—OPB 6.7 μM in wells, DMSO 29.2 μl",(+)
same,"Clonal growth, results read on the day 14","[1]; Exp 17, a: close to densely seeded cell areas, Low: Colchicine 0.1, Podophyllotoxin 0.3, Etoposide 20, 4-OH—OPB 0.67 μM in wells, DMSO 1.16 μl",+
same,"Clonal growth, results read on the day 14","[1]; Exp 17, a: close to densely seeded cell areas, Medium: Colchicine 0.3, Podophyllotoxin 0.9, Etoposide 60, 4-OH—OPB 2 μM in wells, DMSO 6.8 μl",+
same,"Clonal growth, results read on the day 14","[1]; Exp 17, b: sparsely seeded areas in the same agar culture, High: Colchicine 1, Podophyllotoxin 3, Etoposide 200, 4-OH—OPB 6.7 μM in wells, DMSO 29.2 μl",(+)
same,"Clonal growth, results read on the day 14","[1]; Exp 17, b: sparsely seeded areas in the same agar culture, Low: Colchicine 0.1, Podophyllotoxin 0.3, Etoposide 20, 4-OH—OPB 0.67 μM in wells, DMSO 1.16 μl",(+)
same,"Clonal growth, results read on the day 14","[1]; Exp 17, b: sparsely seeded areas in the same agar culture, Medium: Colchicine 0.3, Podophyllotoxin 0.9, Etoposide 60, 4-OH—OPB 2 μM in wells, DMSO 6.8 μl",(+)
same,Clones in sparsely seeded locations of the agar,"[1]; Exp 17, compared with 4-OH-OPB",allow the growth of a few small clones in sparsely seeded locations of the agar; also recorded: to allow the growth of a few small clones in sparsely
same,Significance,"[1]; a: close to densely seeded cell areas, High: Colchicine 1, Podophyllotoxin 3, Etoposide 200, 4-OH—OPB 6.7 μM in wells, DMSO 29.2 μl",Possible
same,Significance,"[1]; a: close to densely seeded cell areas, Low: Colchicine 0.1, Podophyllotoxin 0.3, Etoposide 20, 4-OH—OPB 0.67 μM in wells, DMSO 1.16 μl",No
same,Significance,"[1]; a: close to densely seeded cell areas, Medium: Colchicine 0.3, Podophyllotoxin 0.9, Etoposide 60, 4-OH—OPB 2 μM in wells, DMSO 6.8 μl",No
same,Significance,"[1]; b: sparsely seeded areas, High: Colchicine 1, Podophyllotoxin 3, Etoposide 200, 4-OH—OPB 6.7 μM in wells, DMSO 29.2 μl",Possible
same,Significance,"[1]; b: sparsely seeded areas, Low: Colchicine 0.1, Podophyllotoxin 0.3, Etoposide 20, 4-OH—OPB 0.67 μM in wells, DMSO 1.16 μl",Possible
same,Significance,"[1]; b: sparsely seeded areas, Medium: Colchicine 0.3, Podophyllotoxin 0.9, Etoposide 60, 4-OH—OPB 2 μM in wells, DMSO 6.8 μl",Possible
same,Control of metastatic cells leaving tumour,"[1]; ability of cells to leave a tumour, grow and infiltrate locally or grow in sparsely seeded areas, concluded from Exp 17",probably not
same,"Clonal growth, H high density area of cell gradient, High",[1]; [3],(+)
same,"Clonal growth, L low density area of cell gradient, High",[1]; [3],(+)
same,"Clonal growth, H high density area of cell gradient, Low",[1]; [4],+
same,"Clonal growth, L low density area of cell gradient, Low",[1]; [4],(+)
same,"Clonal growth, H high density area of cell gradient, Medium",[1]; [5],+
same,"Clonal growth, L low density area of cell gradient, Medium",[1]; [5],(+)
same,Control of settlement of metastatic cells,"[1]; single cells or very few cells spread to distant sites, concluded from Exp 17",partly
same,Toxicity for body or dense cell populations,[2],yes
